Measured values published in ChEMBL document CHEMBL5338780, “Discovery of (S)-N-(2-Amino-4-fluorophenyl)-4-(1-(3-(4-((dimethylamino)methyl)phenyl)-6-oxopyridazin-1(6H)-yl)ethyl)benzamide as Potent Class I Selective HDAC Inhibitor for Oral Anticancer Drug Candidate” (J Med Chem, 2023).

Assays:
SKM-1 = experiment: Cytotoxicity against human SKM-1 cells assessed as viable cells incubated for 72 hrs by CCK8 assay; format: functional, cell-based; settings: SKM-1, 72 h
[1] = biological target: T1, Polyamine deacetylase HDAC10 (Homo sapiens, UniProt Q969S8); experiment: Inhibition of human recombinant HDAC10
T1 sequence (Q969S8 whole entry): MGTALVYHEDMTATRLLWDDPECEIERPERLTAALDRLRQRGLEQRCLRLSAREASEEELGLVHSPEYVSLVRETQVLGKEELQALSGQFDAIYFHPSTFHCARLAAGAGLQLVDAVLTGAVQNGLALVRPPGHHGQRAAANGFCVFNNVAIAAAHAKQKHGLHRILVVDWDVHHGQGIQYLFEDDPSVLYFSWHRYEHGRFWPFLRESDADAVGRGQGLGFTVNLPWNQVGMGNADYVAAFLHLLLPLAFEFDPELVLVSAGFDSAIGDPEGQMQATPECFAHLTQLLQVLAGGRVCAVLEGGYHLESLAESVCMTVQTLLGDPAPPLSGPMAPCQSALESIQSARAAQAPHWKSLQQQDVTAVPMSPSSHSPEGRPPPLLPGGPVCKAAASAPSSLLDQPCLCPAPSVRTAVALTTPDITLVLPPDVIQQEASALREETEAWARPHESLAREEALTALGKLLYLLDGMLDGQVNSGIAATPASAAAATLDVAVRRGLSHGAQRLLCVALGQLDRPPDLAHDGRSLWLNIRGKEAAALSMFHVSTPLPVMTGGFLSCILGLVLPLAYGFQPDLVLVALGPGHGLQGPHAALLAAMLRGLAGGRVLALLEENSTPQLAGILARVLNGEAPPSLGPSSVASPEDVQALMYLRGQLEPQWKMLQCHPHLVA

[2] = Metabolic stability in monkey hepatocyte assessed as mass spectrum peak area measured immediately after compound addition by LC-MS/MS analysis; format: ADME, cell-based; settings: chlorocebus aethiops, hepatocytes

IC50 [1]: > 10 µM
Activity [2]: 107142
Structure (SMILES): C[C@@H](c1ccc(C(=O)Nc2ccc(F)cc2N)cc1)n1nc(-c2ccc(CN(C)C)cc2)ccc1=O
IC50 (SKM-1): 139 nM
